“Also recorded” adds a separate entry of the source.
How the values were obtained:
[1] = target: T1, glucocorticoid receptor (GR) (Homo sapiens, UniProt P04150); assay: GR activation reporter: Hela cells transfected with GR and MMTV-luciferase; type: cell-based; conditions: for Induction of luciferase (GR activation), Example 5 / luciferase induction in response to activation of GR / luciferase induction in cells without GR: 1 micromol/l; for luciferase induction in response to activation of GR: Hela cells transfected with GR and MMTV-luciferase; for luciferase induction in cells without GR: Hela cells transfected with luciferase but without GR
T1 construct: expressed in transfected cells; host or cells: HeLa cells
T1 sequence (P04150 1-777): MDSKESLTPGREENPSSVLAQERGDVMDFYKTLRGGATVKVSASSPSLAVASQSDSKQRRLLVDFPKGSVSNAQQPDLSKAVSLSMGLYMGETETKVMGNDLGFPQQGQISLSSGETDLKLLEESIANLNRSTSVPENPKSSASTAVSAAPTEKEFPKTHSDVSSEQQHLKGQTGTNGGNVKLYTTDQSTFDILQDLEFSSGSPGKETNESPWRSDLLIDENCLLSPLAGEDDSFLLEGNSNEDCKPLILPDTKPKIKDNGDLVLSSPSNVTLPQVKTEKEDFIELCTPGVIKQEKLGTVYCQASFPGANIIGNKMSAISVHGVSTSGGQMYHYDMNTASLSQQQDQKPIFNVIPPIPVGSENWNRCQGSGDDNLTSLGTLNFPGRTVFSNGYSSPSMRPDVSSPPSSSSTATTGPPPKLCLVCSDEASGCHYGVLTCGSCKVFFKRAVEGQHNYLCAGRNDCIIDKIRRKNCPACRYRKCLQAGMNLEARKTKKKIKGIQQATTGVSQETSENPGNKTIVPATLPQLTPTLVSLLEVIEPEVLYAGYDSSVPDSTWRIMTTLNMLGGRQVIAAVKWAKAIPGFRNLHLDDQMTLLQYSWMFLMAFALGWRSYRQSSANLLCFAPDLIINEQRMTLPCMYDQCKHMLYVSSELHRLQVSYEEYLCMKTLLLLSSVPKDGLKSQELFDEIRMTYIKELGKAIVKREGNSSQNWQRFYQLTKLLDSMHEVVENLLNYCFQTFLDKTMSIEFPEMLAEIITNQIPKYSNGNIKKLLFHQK
Description: Comparative potency Fold induction of luciferase activity as a consequence of GR activation in Hela cells transfected with GR and luciferase under the control of a GRE and MMTV promoter (n=3). All steroids at 1 μM. Dex=dexamethasone; B=corticosterone; αDHB=5α-dihydrocorticosterone; αTHB=5α-tetrahydrocorticosterone; βDHB=5β-dihydrocorticosterone; βTHB=5β-tetrahydrocorticosterone. *indicates p<0.05 and ***p<0.001 in comparison with corticosterone. 5α-reduced metabolites of corticosterone activate glucocorticoid receptors with similar potency as corticosterone (B). […] 5β-reduced metabolites have no effect.
Dose response. Fold induction of luciferase activity as a consequence of GR activation in Hela cells transfected with GR and luciferase under the control of a GRE and MMTV promoter (n=3).
Corticosterone (B) and 5α-tetrahydrocorticosterone (5αTHB) or vehicle (LTR) were added to the medium (with final steroid concentrations of 1 micromol/l) of Hela cells transfected with GR and a plasmid expressing luciferase under the control of an MMTV glucocorticoid responsive promoter (grey bars) and in transfected cells with luciferase but without GR (open bars).
HeLa cells were transfected with glucocorticoid receptor (GR) and MMTV-luciferase (LTR) as a glucocorticoid sensitive reporter. Induction of luciferase was measured in response to addition of 5α-tetrahydrocorticosterone (5α-THB) with and without corticosterone (B). Data (mean±SEM, n=6) show responses to individual steroids, then the additive responses predicted (Sum) and observed (Actual).
HeLa cells were transfected with glucocorticoid receptor (GR) and MMTV-luciferase (LTR) as a glucocorticoid sensitive reporter. Induction of luciferase was measured in response to addition of 1 micromol/l concentrations of corticosterone (B), cortisol (F), 5alpha-dihydrocortisol (DHF5a) and 5alpha-tetrahydrocortisol (THF5a).

[2] = tested on: glucocorticoid receptors (GR) in hepatocytes; assay: Binding to glucocorticoid receptor in hepatocytes (3H-dexamethasone displacement); conditions: 24° C., 1 h, compared with corticosterone (B)
Description: Hepatocytes were incubated at 24° C. for 1 h in the presence of ^3H-dexamethasone and increasing concentrations of dexamethasone in the concentration range 0.632 nM to 200 μM. Cells were harvested and the radioactivity bound was determined by β-scintillation counting. *=p<0.001 versus B. The results are shown in FIG. 1.

[3] = tested on: neuronal long-term potentiation; conditions: Dubrovsky et al 1987; cited from earlier work
glucocorticoid receptors = target: T2, glucocorticoid receptors (Rattus norvegicus, UniProt P06536); conditions: Carlstedt-Duke et al 1977; cited from earlier work
T2 sequence (P06536 1-795): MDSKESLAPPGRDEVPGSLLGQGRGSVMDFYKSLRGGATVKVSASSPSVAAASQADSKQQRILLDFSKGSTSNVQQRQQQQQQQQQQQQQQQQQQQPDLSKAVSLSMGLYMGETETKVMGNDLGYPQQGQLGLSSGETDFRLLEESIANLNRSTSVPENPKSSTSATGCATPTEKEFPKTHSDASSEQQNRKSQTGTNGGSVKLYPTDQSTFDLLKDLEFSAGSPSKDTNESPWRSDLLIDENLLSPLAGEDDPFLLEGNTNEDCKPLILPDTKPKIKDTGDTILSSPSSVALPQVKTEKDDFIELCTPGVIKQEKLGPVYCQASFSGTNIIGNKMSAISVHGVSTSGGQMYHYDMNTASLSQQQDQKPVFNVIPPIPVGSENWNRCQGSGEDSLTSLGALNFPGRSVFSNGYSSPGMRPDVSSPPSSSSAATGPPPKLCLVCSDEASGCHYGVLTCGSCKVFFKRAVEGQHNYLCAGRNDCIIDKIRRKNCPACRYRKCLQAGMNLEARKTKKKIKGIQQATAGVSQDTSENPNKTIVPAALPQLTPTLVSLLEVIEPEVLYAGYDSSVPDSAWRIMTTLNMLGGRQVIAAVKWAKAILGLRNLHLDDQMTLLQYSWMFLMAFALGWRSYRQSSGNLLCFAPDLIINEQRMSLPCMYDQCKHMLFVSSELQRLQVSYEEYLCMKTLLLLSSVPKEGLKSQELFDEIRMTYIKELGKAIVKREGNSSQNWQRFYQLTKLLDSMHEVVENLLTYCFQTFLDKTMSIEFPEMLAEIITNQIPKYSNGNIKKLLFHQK

[4] = tested on: gluconeogenic enzymes in liver; conditions: Golf et al 1984; cited from earlier work
ACTH levels = assay: ACTH suppression in adrenalectomised rats; type: in vivo, Male lean Zucker rats; conditions: 5 mg/kg intraperitoneal, 2 hours after injection, immunoassay
Description: Male lean Zucker rats aged ˜9 weeks were adrenalectomised. 3 weeks later, samples were obtained by tail tipping before and for 3 hours after intraperitoneal injection of either vehicle, corticosterone (B, 5 mg/kg body weight) or 5alpha-tetrahydrocorticosterone (THB5a, 5 mg/kg body weight). […] This is consistent with activation of glucocorticoid receptors at sites responsible for feedback suppression of the hypothalamic-pituitary-adrenal axis (principally pituitary, hypothalamus and hippocampus).

mouse aortic ring = assay: Angiogenesis bioassay, aortic ring embedded in matrigel; type: cell-based; conditions: 7 days; for number of new vessels forming (angiogenesis): B 600 nmol/l, 5alpha-THB 1000 nmol/l; for angiogenesis effect in presence of RU486: plus GR antagonist RU486
Description: In this bioassay, the number of new vessels forming is measured over 7 days in a mouse aortic ring embedded in matrigel.

[5] = tested on: tyrosine amino transferase (TAT) mRNA in H4iiE cells; assay: Induction of tyrosine amino transferase (TAT) mRNA in H4iiE cells (Northern blot); type: cell-based; conditions: 1 micromol/l; for Induction of TAT mRNA: Northern blot corrected for U1; for Induction of TAT mRNA in presence of RU486: plus GR antagonist RU486
Description: Induction of the glucocorticoid-responsive enzyme tyrosine amino transferase (TAT) mRNA was measured by Northern blot in H4iiE cells incubated in the presence of corticosterone (B, 1 micromol/l) or 5α-tetrahydrocorticosterone (5α-THB, 1 micromol/l) or vehicle.

[6] = HeLa cells, GR and MMTV-luciferase
[7] = Hela cells transfected with GR and GRE/MMTV-luciferase, n=3

| Compound | Induction of luciferase (GR activation), Example 5 [1, 6] | binding affinity for glucocorticoid receptors (GR) [2] | ACTH levels compared with vehicle (ACTH levels) | Fold induction of luciferase activity as a consequence of GR activation (dose response) [1, 7] | luciferase induction in response to activation of GR [1] | luciferase induction in cells without GR [1] | number of new vessels forming (angiogenesis) (mouse aortic ring) | angiogenesis effect in presence of RU486 (mouse aortic ring) | Induction of TAT mRNA [5] | Induction of TAT mRNA in presence of RU486 [5] | other results |
| --- | --- | --- | --- | --- | --- | --- | --- | --- | --- | --- | --- |
| C[C@]12CCC(=O)C[C@@H]1CC[C@@H]1[C@@H]2[C@@H](O)C[C@@]2(C)[C@H]1CC[C@]2(O)C(=O)CO [5alpha-dihydrocortisol] | induced significant GR activation |  |  |  |  |  |  |  |  |  |  |
| C[C@]12CC[C@@H](O)C[C@@H]1CC[C@@H]1[C@@H]2[C@@H](O)C[C@@]2(C)[C@H]1CC[C@]2(O)C(=O)CO [5alpha-tetrahydrocortisol] | induced significant GR activation |  |  |  |  |  |  |  |  |  |  |
| C[C@]12CCC(=O)C[C@@H]1CC[C@@H]1[C@@H]2[C@@H](O)C[C@]2(C)[C@@H](C(=O)CO)CC[C@@H]12 [5α-dihydrocorticosterone] |  | lower binding affinities |  |  |  |  |  |  |  |  | effect on neuronal long-term potentiation [3]: inhibition of neuronal long-term potentiation; binding to glucocorticoid receptors, judged by displacement of bound dexamethasone (glucocorticoid receptors): does not bind to glucocorticoid receptors; activity of gluconeogenic enzymes in liver [4]: lowering activity of gluconeogenic enzymes in liver |
| C[C@]12CC[C@@H](O)C[C@@H]1CC[C@@H]1[C@@H]2[C@@H](O)C[C@]2(C)[C@@H](C(=O)CO)CC[C@@H]12 [5α-tetrahydrocorticosterone] |  | equivalent binding affinity | significantly suppressed ACTH levels | activate a glucocorticoid receptor-dependent response; also recorded: lesser effect than corticosterone | activated GR | abolished in the absence of transfected receptor | prevents angiogenesis | also blocked by RU486 | induced TAT mRNA transcription | blocked | agonist type at GR (observed versus predicted additive luciferase response) ([1]; HeLa cells, GR and MMTV-luciferase, with and without corticosterone, n=6): full rather than partial agonist of GR; Fold induction of luciferase activity as a consequence of GR activation (comparative potency) ([1]; Hela cells transfected with GR and GRE/MMTV-luciferase, all steroids at 1 μM, n=3): more potent than 5α-dihydrocorticosterone |
| C[C@]12C[C@H](O)[C@H]3[C@@H](CCC4=CC(=O)CC[C@@]43C)[C@@H]1CC[C@@H]2C(=O)CO [corticosterone, reference compound] | induced significant GR activation |  | significantly suppressed ACTH levels | activate a glucocorticoid receptor-dependent response | activated GR | abolished in the absence of transfected receptor | inhibits angiogenesis | blocked | induced TAT mRNA transcription | blocked |  |
| C[C@]12CCC(=O)C=C1CC[C@@H]1[C@@H]2[C@@H](O)C[C@@]2(C)[C@H]1CC[C@]2(O)C(=O)CO [cortisol, reference compound] | induced significant GR activation |  |  |  |  |  |  |  |  |  |  |
